Test results as given in patent US11389460B2, “Methods and compositions for treating endometrial cancer” (City of Hope, priority 2017, dated 2022).
Where two headings read alike, the source gives them in different places.

How the values were obtained:
[1] = system: p-STAT3, p-AKT, p-ERK and ER-α; experiment: Western blot of cell signaling molecules in HEC-1A cells; type: cell-based, Human; settings: 24 h, single agents at various concentrations, combination 75 μM each
Experimental: (§1) Western blot analysis. Western blots were performed as described previously^55,56 Cells were grown in complete medium overnight and treated with DMSO or drugs at various concentrations for 24 hrs. Cells were washed in cold PBS and lysed in RIPA lysis buffer (Thermo Scientific) containing Halt protease and phosphatase inhibitors (Thermo Scientific). Proteins were quantified using BCA protein assay reagent (Thermo Scientific). Equal amounts of protein were separated by SDS-polyacrylamide gel electrophoresis, transferred to polyvinylidene fluoride membranes and incubated with total and phosphorylated protein-specific antibodies. Binding of the primary antibody was detected using a horseradish peroxidase (HRP)-conjugated secondary antibody and chemiluminescent substrates (Thermo Scientific).

[2] = system: cell survival molecules and cell cycle molecules (caspase 3, PARP, BCL-2, BCL-xl, cyclin D1, cyclin B1, CDK4); experiment: Western blot of cell survival and cell cycle molecules in HEC-1A cells; type: cell-based, Human; settings: 24 h, single agents at various concentrations, combination 75 μM each
Experimental: as §1

HEC-1A xenograft = HEC-1A xenograft mouse model; type: in vivo, nude mice; settings: oral gavage daily, 5 weeks; Pterostilbene 30 mg/kg, megestrol acetate 10 mg/kg, or both; versus vehicle
Experimental: Animal models. All animal studies were carried out under protocols approved by the Institutional Animal Care and Use Committee (IACUC) at City of Hope in accordance with all applicable federal, state, and local requirements and institutional guidelines. HEC-1A cells (2×10^6 in 100 μl) were inoculated subcutaneously into the right flank of 6- to 8-week-old female nude mice. Once the tumors were palpable, animals were randomized into groups of 10 to achieve an equal distribution of tumor sizes in all treatment groups. Mice were then treated by oral gavage daily with vehicle, Pterostilbene (30 mg/kg), megestrol acetate (10 mg/kg), or a combination of both agents. The doses for these two drugs were chosen based on previously published studies. Tumor volumes were assessed using calipers twice a week. Tumor volumes were determined using the formula (Width)^2×Length×0.52. Body weight was monitored weekly as an indicator of drug-induced toxicity and overall health of the mice.
Statistical analysis. Data are presented as mean±S.D. Student's t-test was used to compare the means of two groups. All the experiments were repeated 2 to 4 times. P<0.05 was considered statistically significant.

[3] = system: advanced stage/recurrent endometrial cancer; settings: advanced stage / metastatic and recurrent endometrial cancer patients, cited from earlier work
[4] = compared to Resveratrol; cited from earlier work
HEC-1A cells = experiment: Cell viability assay (MTS / acid phosphatase), combination index by Chou-Talalay; type: cell-based; settings: Homo sapiens, read-out: IC50 (concentration for 50% growth inhibition), pterostilbene alone, 48 h, one range printed for both cell lines
Experimental: (§2) Cell Culture. Human endometrial cancer cell lines HEC-1A and ECC-1 cells were from American Type Culture Collection (Rockville, Md.). […] All cells were grown in 5% (v/v) CO2 at 37° C.
(§3) Cell viability assays. Cells (4000 per well) were plated in 96-well plate format in 100 μl growth medium. Cells were treated with DMSO or drugs the next day at the indicated concentrations and incubated for an additional 2-3 days. Viable cells were determined either by the MTS assay (Promega, Madison, Wis., USA) or the acid phosphatase assay^53,54. For the MTS assay, 25 μl MTS solution was added directly into each well according to the manufacturer's instructions. For the acid phosphatase assay, all the media was removed and p-nitrophenyl phosphate substrate (10 mM 100 μl) was added into each well and incubated at 37° C. for 45 mins. […] The IC50 was determined using the Calcusyn software (Biosoft, Ferguson, Mo.).
(§4) Determination of combination index (CI). The combination index (CI) was determined using the Chou-Talalay method^37 using the Calcusyn software (Biosoft, MO).

ECC-1 cells = experiment: as above; type: cell-based; settings: Homo sapiens, ECC-1, read-out: IC50 (concentration for 50% growth inhibition), pterostilbene alone, 48 h, one range printed for both cell lines
Experimental: as §2, §3, §4

[5] = recent clinical trial; cited from earlier work

| Molecule | ER expression [1] | Expression of p-ERK1/2 [1] | Expression of p-STAT3 and p-AKT [1] | Cleavage of caspase 3 [2] | Expression of BCL-2 and BCL-xl [2] | Expression of cyclin D1, cyclin B1 and CDK4 [2] | Tumor growth reduction (tumor volume and tumor weight) (HEC-1A xenograft) | Response rate [3] | Response rate ([3]; listed as MA) | Bioavailability [4] | IC50 (HEC-1A cells) [µM] | IC50 (ECC-1 cells) [µM] | Dose generally safe for use in humans [5] |
| --- | --- | --- | --- | --- | --- | --- | --- | --- | --- | --- | --- | --- | --- |
| megestrol acetate [reference compound] | did not significantly alter | did not significantly alter | did not significantly alter | little effect | little effect | little impact | non-significant | 20-30% | 25-30% | – | – | – | – |
| COc1cc(/C=C/c2ccc(O)cc2)cc(OC)c1 [pterostilbene] | slightly decreased | no significant effect | no significant effect | increased cleavage | decrease | inhibited | non-significant | – | – | superior bioavailability as compared to Resveratrol | 72 to 78 | 72 to 78 | up to 250 mg/day |
